Measured values from the supplement of paper PMC10307832.

Key:
Test in all cases: relative viability (nuclei count vs DMSO), 5 days (fraction); higher = more cells survive
GSK-J4 + Alpelisib = compound: CCOC(=O)CCNc1cc(N2CCc3ccccc3CC2)nc(-c2ccccn2)n1 [GSK-J4] + Cc1nc(NC(=O)N2CCC[C@H]2C(N)=O)sc1-c1ccnc(C(C)(C)C(F)(F)F)c1 [Alpelisib] (partner 2 µM)
In short: (§1)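 Values are medians from duplicate plates. Each reflects relative viability, defined as the nuclei count of treated wells over that of vehicle wells. Lung cancer cell lines in 1536-well plates were pin-tool dosed one day after seeding with one drug alone or with a fixed anchor-drug dose plus five library-drug doses (not always all listed) in √10 steps, then fixed, stained and imaged at 4× after 5 days.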

AZ3146 + Foretinib = compound: CN1CCC(CC1)OC2=CC(=C(C=C2)NC3=NC=C4C(=N3)N(C(=O)N4C)C5CCCC5)OC [AZ3146] + COc1cc2c(Oc3ccc(NC(=O)C4(C(=O)Nc5ccc(F)cc5)CC4)cc3F)ccnc2cc1OCCCN1CCOCC1 [Foretinib] (partner 0.25 µM)
In short: as §1

GSK-J4 + Dasatinib = compound: CCOC(=O)CCNc1cc(N2CCc3ccccc3CC2)nc(-c2ccccn2)n1 [GSK-J4] + Cc1nc(Nc2ncc(C(=O)Nc3c(C)cccc3Cl)s2)cc(N2CCN(CCO)CC2)n1 [Dasatinib] (partner 0.075 µM)
In short: as §1

AZ3146 + Crizotinib = compound: CN1CCC(CC1)OC2=CC(=C(C=C2)NC3=NC=C4C(=N3)N(C(=O)N4C)C5CCCC5)OC [AZ3146] + C[C@@H](Oc1cc(-c2cnn(C3CCNCC3)c2)cnc1N)c1c(Cl)ccc(F)c1Cl [Crizotinib] (partner 1 µM)
In short: as §1

Cell Line | relative viability (GSK-J4 + Alpelisib; first compound 0.5 µM) | relative viability (GSK-J4 + Alpelisib; first compound 1.581 µM) | relative viability (GSK-J4 + Alpelisib; first compound 15.81 µM) | relative viability (GSK-J4 + Alpelisib; first compound 50 µM) | relative viability (AZ3146 + Foretinib; first compound 0.08 µM) | relative viability (AZ3146 + Foretinib; first compound 0.253 µM) | relative viability (AZ3146 + Foretinib; first compound 0.8 µM) | relative viability (AZ3146 + Foretinib; first compound 2.53 µM) | relative viability (AZ3146 + Foretinib; first compound 8 µM) | relative viability (GSK-J4 + Dasatinib; first compound 0.5 µM) | relative viability (GSK-J4 + Dasatinib; first compound 5 µM) | relative viability (GSK-J4 + Dasatinib; first compound 15.81 µM) | relative viability (GSK-J4 + Dasatinib; first compound 50 µM) | relative viability (AZ3146 + Crizotinib; first compound 0.08 µM) | relative viability (AZ3146 + Crizotinib; first compound 0.253 µM) | relative viability (AZ3146 + Crizotinib; first compound 0.8 µM) | relative viability (AZ3146 + Crizotinib; first compound 2.53 µM) | relative viability (AZ3146 + Crizotinib; first compound 8 µM) | relative viability (GSK-J4 + Alpelisib; first compound 5 µM) | relative viability (GSK-J4 + Dasatinib; first compound 1.581 µM)
NCI-H2087 | 0.988 | 1.17 | 0.933 | 0.745 | 1.06 | 1.11 | 1.12 | 1.05 | 0.531 | 0.747 | 0.725 | 0.694 | 0.645 | 0.906 | 0.875 | 0.843 | 0.795 | 0.376 | – | –
NCI-H2126 | 0.763 | 0.706 | 0.741 | 0.684 | 0.911 | 1.31 | 1.04 | 1.25 | 1.29 | 0.603 | 0.587 | 0.56 | 0.444 | 1.05 | 0.992 | 1.06 | 1.07 | 0.989 | 0.787 | 0.47
NCI-H2170 | 0.787 | 0.803 | 0.781 | 0.713 | 1.09 | 0.974 | 0.983 | 1.04 | 1.03 | 0.542 | 0.643 | 0.475 | 0.536 | 1.04 | 1.07 | 1.22 | 1.11 | 1.03 | 0.878 | 0.744
NCI-H2228 | 0.702 | 0.653 | 0.566 | 0.575 | 0.736 | 0.743 | 0.736 | 0.88 | 0.656 | 0.534 | 0.683 | 0.398 | 0.525 | 0.537 | 0.503 | 0.423 | 0.396 | 0.369 | 0.933 | 0.436
NCI-H2347 | 1.02 | 0.659 | 1.05 | 0.722 | 0.89 | 0.934 | 0.501 | 1.1 | 1.07 | 0.316 | 0.572 | – | 0.261 | 0.522 | 0.677 | 0.822 | 0.647 | 0.699 | 0.933 | 0.286
NCI-H2405 | 0.814 | 0.619 | 0.897 | 0.935 | 1.02 | 1.03 | 1.13 | 1.1 | 1.09 | 0.231 | – | 0.212 | 0.186 | 0.808 | 0.842 | 0.733 | 0.899 | 0.798 | – | 0.327
NCI-H3122 | 0.78 | 0.634 | 0.716 | 0.674 | 0.924 | 1.02 | 0.971 | 0.942 | 1.03 | 0.826 | 0.788 | 0.864 | 0.789 | 0.294 | 0.299 | 0.274 | 0.305 | 0.27 | 0.95 | 0.722
PC-3 [JPC-3] | 0.984 | 0.961 | 0.997 | 0.848 | 0.927 | 1.02 | 1.03 | 1.14 | 0.966 | 0.978 | 0.742 | 0.924 | 0.859 | 0.912 | 0.983 | 0.974 | 1.03 | 0.984 | 1.06 | 0.891
PC-14 | 0.916 | 0.909 | 0.873 | 0.913 | 0.891 | 0.9 | 0.969 | 1.02 | 1.02 | 0.252 | 0.204 | 0.285 | 0.255 | 0.898 | 0.98 | 0.975 | 1 | 0.828 | 0.946 | 0.271
RERF-LC-KJ | 0.65 | 0.732 | 0.744 | 0.551 | 0.851 | 0.862 | 0.895 | 0.942 | 0.844 | 0.68 | 0.695 | 0.708 | 0.371 | 0.794 | 0.864 | 0.816 | 0.864 | 0.66 | 0.803 | 0.774
SK-LU-1 | 0.927 | 0.885 | 0.834 | 0.565 | 0.803 | 0.867 | 0.804 | 0.897 | 0.528 | 0.176 | 0.127 | 0.199 | 0.179 | 1.1 | 1.11 | 1.03 | 0.985 | 0.471 | 0.661 | 0.161
SK-MES-1 | 0.783 | 0.968 | 0.805 | 0.819 | 0.979 | 0.832 | 0.974 | 1 | 0.957 | 0.392 | 0.334 | 0.24 | 0.358 | 0.936 | 1.03 | 0.97 | 1.12 | 1.05 | 0.842 | 0.348
SW 1573 | 0.669 | 0.715 | 0.721 | 0.454 | 0.897 | 0.732 | 0.983 | 1.15 | 0.884 | 0.326 | 0.348 | 0.362 | 0.246 | 0.758 | 0.843 | 0.892 | 0.891 | 0.531 | 0.718 | 0.42
